Like-named read-outs stand apart in the source and are kept apart here. Blank lines part the entries; values can stand above or below the compound they belong to.
Tests used:
Ca^2+-ATPase = conditions: literature values for known P-type ATPase inhibitors; cited from earlier work
[1] = molecular target: T1, sarcoplasmic reticulum (SR) Ca^2+-ATPase (Oryctolagus cuniculus, UniProt P04191); experiment: Sarcoplasmic reticulum Ca2+-ATPase activity, coupled enzyme pyruvate kinase/lactate dehydrogenase assay; type: biochemical, rabbit; conditions: for IC50: SR vesicles from rabbit skeletal muscle, pH 7.0, 25 °C, uncoupled activity (A23187), triplicate
T1 construct: from tissue; host or cells: rabbit skeletal muscle sarcoplasmic reticulum vesicles
T1 sequence (P04191 1-994 isoform P04191-2): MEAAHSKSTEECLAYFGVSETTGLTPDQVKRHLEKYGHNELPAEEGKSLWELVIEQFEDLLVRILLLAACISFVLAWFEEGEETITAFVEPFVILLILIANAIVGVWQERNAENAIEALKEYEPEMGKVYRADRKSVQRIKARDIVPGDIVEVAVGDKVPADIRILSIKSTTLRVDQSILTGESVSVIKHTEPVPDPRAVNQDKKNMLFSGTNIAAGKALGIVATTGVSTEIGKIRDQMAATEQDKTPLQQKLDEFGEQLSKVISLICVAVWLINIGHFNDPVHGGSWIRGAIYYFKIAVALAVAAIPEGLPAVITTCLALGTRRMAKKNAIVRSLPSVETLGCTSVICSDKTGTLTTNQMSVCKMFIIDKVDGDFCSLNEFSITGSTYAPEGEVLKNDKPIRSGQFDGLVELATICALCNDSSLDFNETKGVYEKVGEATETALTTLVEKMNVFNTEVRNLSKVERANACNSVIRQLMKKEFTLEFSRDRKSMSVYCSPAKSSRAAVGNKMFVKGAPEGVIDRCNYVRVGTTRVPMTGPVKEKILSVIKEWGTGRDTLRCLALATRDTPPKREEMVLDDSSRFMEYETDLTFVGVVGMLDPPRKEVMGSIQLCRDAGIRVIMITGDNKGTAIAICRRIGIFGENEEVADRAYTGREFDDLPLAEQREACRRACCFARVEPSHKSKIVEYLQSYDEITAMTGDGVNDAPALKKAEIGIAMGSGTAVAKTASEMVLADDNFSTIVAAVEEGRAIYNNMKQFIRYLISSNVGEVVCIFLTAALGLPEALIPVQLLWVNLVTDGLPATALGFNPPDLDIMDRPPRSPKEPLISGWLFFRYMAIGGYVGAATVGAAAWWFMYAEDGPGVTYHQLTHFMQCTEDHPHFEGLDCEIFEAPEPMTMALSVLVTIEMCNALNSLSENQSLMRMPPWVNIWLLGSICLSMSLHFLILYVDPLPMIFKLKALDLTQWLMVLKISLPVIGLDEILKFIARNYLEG
Description: In order to evaluate the inhibition potential for each of the POMs compounds regarding the Ca^2+-ATPase activity, increasing concentrations of each POM and a control without the presence of the inhibitor were used in order to determine the IC50 values. For each of these assays, an absorbance versus time kinetic is obtained. In the absence of the POM, the control assay was obtained—that is, a kinetic with a higher slope, while by increasing the concentrations of the POMs, lower enzymatic kinetic slopes were found due to the inhibition of the ATPase activity (Figure S1).
Using this method, the effects of the inhibitors can be observed in real time and recorded within 2 to 5 min upon addition of the inhibitor, as described previously. […] For each compound, the equation governing the trendline of this can be solved for 50% in order to determine the IC50 value.
The sarcoplasmic reticulum vesicles (SRV) that contain the Ca^2+-ATPase was previously prepared from rabbit skeletal muscles as described elsewhere. The vesicles were suspended in 0.1 M KCl, 10 mM HEPES (pH 7.0), diluted 1:1 with 2.0 M sucrose, and frozen in liquid nitrogen for storage at −80 °C. […] Stock solutions of the POMs compounds (1 mM) were freshly prepared by dissolving the solid compound in miliQ water and keeping the solution at room temperature before use.
For carrying out the determination of Ca^2+-ATPase activity assays, the following medium was prepared: 25 mM HEPES (pH 7.0), 100 mM KCl, 5 mM MgCl2 and 50 µM CaCl2.
The experiments were performed with isolated sarcoplasmic reticulum vesicles (SRVs) previously diluted to 1 mg/mL with a sucrose concentration of 0.25 M (Figure 11). 0.8 mL of medium described above was added into a quartz cuvette. 0.42 mM phosphoenolpyruvate (PEP), 18 IU lactate dehydrogenase, 7.5 IU 155 pyruvate kinase, and 2.5 mM ATP without (control) or with increasing concentrations of POMs were added to this medium. […] The absorbance of the solution was measured spectrophotometrically at 340 nm, 25 °C, and an auto zero was performed. Subsequently, 0.25 mM NADH was added, allowing the absorbance value to stabilize to about 1.3 O.D. The assay begins after the addition of 10 μg/mL of Ca^2+-ATPase (basal activity) and one minute after ionophore A23187 (calcimycin) 4% (w/w) was added (uncoupled activity), and the kinetics followed for about 2 min in the absence or in the presence of increasing concentrations of POMs, from 0 to 15 μM for compound 1 and from 0 to 80 μM for compound 2. […]
For each experimental condition, the experiments were always performed in triplicate. Therefore, the determination of Ca^2+-ATPase activity without and with the inhibitor was made using a continuous enzymatic method using the measurement of absorbance versus time (Figure S1), as described elsewhere.

[2] = molecular target: T1, sarcoplasmic reticulum (SR) Ca^2+-ATPase; conditions: cited from earlier work; for IC50: same experimental model, method and conditions

Compound: CC(=O)C1=C(O)[C@@H]2[C@H]3c4c[nH]c5cccc(c45)C[C@H]3C(C)(C)N2C1=O [CPA, cyclopiazonic acid]
IC50 (Ca^2+-ATPase): 0.1 to 0.2 µM

IC50 [1]: 3.4 µM | fold inhibition potential regarding ATPase activity relative to compound 2 ([1]; ratio of IC50 values, compound 1 vs compound 2): about 13 fold
Compound: (C2H8N1)6[V2Mo18O62].3H2O [compound 1]

Compound: [O]=[V]([OH])([OH])[O][V]1(=[O])[O][V]2(=[O])[O][V](=[O])([O][V](=[O])([OH])[OH])[O][V](=[O])([O]2)[O][V]2(=[O])[O][V](=[O])([O][V](=[O])([OH])[OH])[O][V](=[O])([O]1)[O]2 (stereo not shown) [V10, decavanadate]
IC50 [2]: 15 µM

Compound: Cc1ccc(-c2cc(C(F)(F)F)nn2-c2ccc(S(N)(=O)=O)cc2)cc1 [celecoxib]
IC50 (Ca^2+-ATPase): 35 µM

Compound: C/C=C(/C)C(=O)O[C@H]1C(C)=C2[C@H]([C@@H]1OC(=O)CCCCCCC)[C@@](C)(OC(C)=O)C[C@H](OC(=O)CCC)[C@@]1(O)[C@H]2OC(=O)[C@@]1(C)O [TG, thapsigargin]
IC50 (Ca^2+-ATPase): 0.001 to 0.029 µM

Compound: metformin-decavanadate [Metf-V10]
IC50 ATPase inhibition value relative to V10 alone ([2]; metformin-decavanadate vs V10): six times higher | IC50 [2]: 87.4 µM

IC50 [1]: 45.1 µM | Ca^2+-ATPase inhibition potency relative to Anderson type TeW6 ([1]; comparison of IC50 values, compound 2 vs TeW6): four times more potent
Compound: (C4H16N3)4[V2W4O19]3.12H2O [compound 2]
